Laboratory results reported in US12528818B2, “Compositions and methods for inhibition of RAS” (Leidos Biomedical Research, Inc., priority 2021, dated 2026).
Read-outs that look alike come from different tables or passages of the source.

Test system: pERK in NCI-H358 cells
Experiment: Cell-based pERK HTRF assay (pERK inhibition in H358 cells)
Settings: pERK inhibition IC50, NCI-H358 cells, 30 min incubation, read-out: PERK in H358 cell
Procedure: On Day 1, cells (NCI-H358) were seeded into 96-well plates at 4×10^4 cells/well in complete growth media (RPMI, 10% FBS).
The source plate was created with compounds diluted in media at 5-fold the final assay concentration. […] 20 μL was transferred onto the cell plates (final volume in wells was 100 μL). Plates were harvested after 30 min incubation by aspirating media and adding kit-supplied 1× supplemented lysis buffer to all wells (75 μl per well). Plates were then placed on a plate shaker and incubated at 850 rpm for an additional 30 min.
Antibody mixture solution was prepared by diluting aliquoted d2 and Eu Cryptate antibodies 1:20 in kit supplied detection buffer, then mixed the diluted antibodies solutions (1:1 v:v).
Samples were homogenized by pipetting up and down and then transferred (16 μL of cell lysates) from the 96-well cell culture plate to two wells of the HTRF 384-well detection plate containing the antibody solution. Plates were centrifuged (524 g for 1 min) and allowed to incubate between 4 and 24 h at room temperature. Maximum signal is reached after 4 h incubation time and remains stable over a period of 24 hours. Therefore, readings can be made between 4 and 24 h of incubation.

| SMILES | IC50 [nM] | IC50 (Homo sapiens, NCI-H358, 0.5 h) [nM] |
| --- | --- | --- |
| C=CC(=O)N1CC[C@@H](N(C)c2nc(OCC34CCCN3CCC4)nc3c(F)c(-c4ccc(F)c5sc(N)nc45)c(C(F)(F)F)cc23)C1 (atropisomer, axis not shown) [Compound 221] | > 1000 | – |
| C=CC(=O)N1CC[C@@H](N(C)c2nc(OCC34CCCN3CCC4)nc3c(F)c(-c4ccc(F)c5sc(N)nc45)c(C(F)(F)F)cc23)C1 (atropisomer, axis not shown) [Compound 222] | 100 to 1000 | – |
| C=CC(=O)N1CC[C@@H](N(C)c2nc(OC[C@@H]3CC(F)(F)CN3C)nc3c(F)c(-c4ccc(F)c5sc(N)nc45)c(C(F)(F)F)cc23)C1 (atropisomer, axis not shown) [Compound 228] | < 100 | – |
| C=CC(=O)N1CC[C@@H](N(C)c2nc(OC[C@@H]3CC(F)(F)CN3C)nc3c(F)c(-c4ccc(F)c5sc(N)nc45)c(C(F)(F)F)cc23)C1 (atropisomer, axis not shown) [Compound 229] | > 1000 | – |
| C=CC(=O)N1CC[C@@H](N(C)c2nc(OC[C@@H]3C[C@@H](F)CN3C)nc3c(F)c(-c4ccc(F)c5sc(N)nc45)c(C(F)(F)F)cc23)C1 (atropisomer, axis not shown) [Compound 231] | – | 100 to 1000 |
| C=CC(=O)N1CC[C@@H](N(C)c2nc(OC[C@@H]3C[C@@H](F)CN3C)nc3c(F)c(-c4ccc(F)c5sc(N)nc45)c(C(F)(F)F)cc23)C1 (atropisomer, axis not shown) [Compound 232] | 100 to 1000 | – |
| C=CC(=O)N1CC[C@@H](N(C)c2c(C#N)c(OC[C@@]34CCCN3C[C@H](F)C4)nc3c(F)c(-c4ccc(F)c5sc(N)nc45)c(Cl)cc23)C1 (atropisomer, axis not shown) [Compound 234] | – | > 1000 |
| C=CC(=O)N1CCC[C@@H](N(C)c2nc(OC[C@@]34CCCN3C[C@H](F)C4)nc3c(F)c(-c4ccc(F)c5sc(N)nc45)c(Cl)cc23)C1 (atropisomer, axis not shown) [Compound 241] | – | < 100 |
| C=CC(=O)N1CCC[C@@H](N(C)c2nc(OC[C@@]34CCCN3C[C@H](F)C4)nc3c(F)c(-c4ccc(F)c5sc(N)nc45)c(Cl)cc23)C1 (atropisomer, axis not shown) [Compound 242] | 100 to 1000 | – |
| C=CC(=O)N1C[C@H](N(C)c2ncnc3c(F)c(-c4ccc(F)c5sc(N)nc45)c(C(F)(F)F)cc23)C[C@H]1C (atropisomer, axis not shown) [Compound 250] | 100 to 1000 | – |
| C=CC(=O)N1C[C@H](N(C)c2ncnc3c(F)c(-c4ccc(F)c5sc(N)nc45)c(C(F)(F)F)cc23)C[C@H]1C (atropisomer, axis not shown) [Compound 251] | > 1000 | – |
| C=CC(=O)N1CC[C@@H](N(C)c2nc(OC[C@@H]3CC4(CC4)CN3C)nc3c(F)c(-c4ccc(F)c5sc(N)nc45)c(C(F)(F)F)cc23)C1 (atropisomer, axis not shown) [Compound 255] | – | < 100 |
| C=CC(=O)N1CC[C@@H](N(C)c2nc(OC[C@@H]3CC4(CC4)CN3C)nc3c(F)c(-c4ccc(F)c5sc(N)nc45)c(C(F)(F)F)cc23)C1 (atropisomer, axis not shown) [Compound 256] | < 100 | – |
| C=CC(=O)N1C[C@H](N(C)c2ncnc3c(F)c(-c4ccc(F)c5sc(N)nc45)c(C(F)(F)F)cc23)C2(CC2)C1 (atropisomer, axis not shown) [Compound 263] | – | > 1000 |
| C=CC(=O)N1C[C@H](N(C)c2ncnc3c(F)c(-c4ccc(F)c5sc(N)nc45)c(C(F)(F)F)cc23)C2(CC2)C1 (atropisomer, axis not shown) [Compound 264] | > 1000 | – |
| C=CC(=O)N1C[C@H](C)N(c2nc(OC[C@@]34CCCN3C[C@H](F)C4)nc3c(F)c(-c4ccc(F)c5sc(N)nc45)c(C(F)(F)F)cc23)C[C@H]1C (atropisomer, axis not shown) [Compound 267] | < 100 | – |
| C=CC(=O)N1C[C@H](C)N(c2nc(OC[C@@]34CCCN3C[C@H](F)C4)nc3c(F)c(-c4ccc(F)c5sc(N)nc45)c(C(F)(F)F)cc23)C[C@H]1C (atropisomer, axis not shown) [Compound 268] | < 100 | – |
| C=CC(=O)N1CC[C@@H](N(C)c2nc(OC[C@]34CCCN3C[C@H](OC)C4)nc3c(F)c(-c4ccc(F)c5sc(N)nc45)c(C(F)(F)F)cc23)C1 (atropisomer, axis not shown) [Compound 277] | – | < 100 |
| C=CC(=O)N1CC[C@@H](N(C)c2nc(OC[C@]34CCCN3C[C@H](OC)C4)nc3c(F)c(-c4ccc(F)c5sc(N)nc45)c(C(F)(F)F)cc23)C1 (atropisomer, axis not shown) [Compound 278] | 100 to 1000 | – |

| SMILES | IC50 [nM] | IC50 (Homo sapiens, NCI-H358, 0.5 h) [nM] |
| --- | --- | --- |
| C=CC(=O)N1C[C@H](C)N(c2nc(OC[C@@]34CCCN3C[C@H](OC)C4)nc3c(F)c(-c4ccc(F)c5sc(N)nc45)c(C(F)(F)F)cc23)C[C@H]1C (atropisomer, axis not shown) [Compound 289] | – | < 100 |
| C=CC(=O)N1[C@@H](C)CN(c2nc(OC[C@@]34CCCN3C[C@H](OC)C4)nc3c(F)c(-c4ccc(F)c5sc(N)c(C#N)c45)c(C(F)(F)F)cc23)C[C@@H]1C (atropisomer, axis not shown) [Compound 364] | – | < 100 |
| C=CC(=O)N1CC[C@H](N(C)c2nc(OC[C@@]34CCCN3C[C@H](F)C4)nc3c(F)c(-c4ccc(F)c5sc(N)c(C#N)c45)c(Cl)cc23)[C@@H]1C (atropisomer, axis not shown) [Compound 467] | – | < 100 |
| C=CC(=O)N1CC[C@@H](N(c2nc(OC[C@@]34CCCN3C[C@H](F)C4)nc3c(F)c(-c4ccc(F)c5sc(N)nc45)c(C(F)(F)F)cc23)C2CC2)C1 (single isomer, unassigned) [Compound 236] | < 100 | – |
| C=CC(=O)N1CC[C@@H](N(c2nc(OC[C@@]34CCCN3C[C@H](F)C4)nc3c(F)c(-c4ccc(F)c5sc(N)nc45)c(C(F)(F)F)cc23)C2CC2)C1 (single isomer, unassigned) [Compound 237] | > 1000 | – |
| C=CC(=O)N1CC[C@@H](N(C)c2nc(OC[C@@]34CCCN3C[C@H](F)C4)nc3c(F)c(-c4ccc(F)c5sc(N)nc45)c(C(F)(F)F)cc23)C1 (single isomer, unassigned) [Compound 239] | – | < 100 |
| C=CC(=O)N1CC[C@@H](N(C)c2nc(OC[C@@]34CCCN3C[C@H](F)C4)nc3c(F)c(-c4ccc(F)c5sc(N)nc45)c(C(F)(F)F)cc23)C1 (single isomer, unassigned) [Compound 240] | 100 to 1000 | – |
| C=CC(=O)N1CC[C@@H](Nc2nc(OC[C@@]34CCCN3C[C@H](F)C4)nc3c(F)c(-c4ccc(F)c5sc(N)nc45)c(C(F)(F)F)cc23)C1 (single isomer, unassigned) [Compound 271] | < 100 | – |
| C=CC(=O)N1CC[C@@H](Nc2nc(OC[C@@]34CCCN3C[C@H](F)C4)nc3c(F)c(-c4ccc(F)c5sc(N)nc45)c(C(F)(F)F)cc23)C1 (single isomer, unassigned) [Compound 272] | > 1000 | – |
| C=CC(=O)N1CC[C@@H](N(C)c2nc(OC[C@@]34CCCN3C[C@H](F)C4)nc3c(Cl)c(-c4ccc(F)c5sc(N)nc45)c(C(F)(F)F)cc23)C1 (single isomer, unassigned) [Compound 302] | – | < 100 |
| C=CC(=O)N1CC[C@@H](N(C)c2nc(OC[C@@]34CCCN3C[C@H](F)C4)nc3c(Cl)c(-c4ccc(F)c5sc(N)nc45)c(C(F)(F)F)cc23)C1 (single isomer, unassigned) [Compound 303] | 100 to 1000 | – |
| C=CC(=O)N1C[C@H](C)N(c2nc(OC[C@@]34CCCN3C[C@H](F)C4)nc3c(F)c(-c4ccc(F)c5sc(N)c(C#N)c45)c(C(F)(F)F)cc23)C[C@H]1C (single isomer, unassigned) [Compound 313] | – | < 100 |
| C=CC(=O)N1C[C@H](C)N(c2nc(OC[C@@]34CCCN3C[C@H](F)C4)nc3c(F)c(-c4ccc(F)c5sc(N)c(C#N)c45)c(C(F)(F)F)cc23)C[C@H]1C (single isomer, unassigned) [Compound 314] | 100 to 1000 | – |
| C=CC(=O)N1CC[C@@H](N(C)c2nc(OC[C@@]34CCCN3C[C@H](F)C4)nc3c(F)c(-c4ccc(F)c5sc(N)c(C#N)c45)c(C(F)(F)F)cc23)[C@H]1C (single isomer, unassigned) [Compound 434] | < 100 | – |
| C=CC(=O)N1CC[C@@H](N(C)c2nc(OC[C@@]34CCCN3C[C@H](F)C4)nc3c(F)c(-c4ccc(F)c5sc(N)c(C#N)c45)c(C(F)(F)F)cc23)[C@H]1C (single isomer, unassigned) [Compound 435] | > 1000 | – |
| C=CC(=O)N1C[C@H](C)N(c2nc(OC[C@@H]3CCCN3C)nc3c(F)c(-c4ccc(F)c5sc(N)c(C#N)c45)c(C(F)(F)F)cc23)C[C@H]1C (single isomer, unassigned) [Compound 458] | – | < 100 |
| C=CC(=O)N1CC[C@H](N(C)c2nc(OC[C@@]34CCCN3C[C@H](F)C4)nc3c(F)c(-c4ccc(F)c5sc(N)c(C#N)c45)c(C(F)(F)F)cc23)[C@@H]1C (single isomer, unassigned) [Compound 472] | – | < 100 |
| C=CC(=O)N1CC[C@H](N(C)c2nc(OC[C@@]34CCCN3C[C@H](F)C4)nc3c(F)c(-c4ccc(F)c5sc(N)c(C#N)c45)c(C(F)(F)F)cc23)[C@@H]1C (single isomer, unassigned) [Compound 473] | < 100 | – |
| C=CC(=O)N1CC(Nc2nc(OC[C@@H]3CCCN3C)nc3c(F)c(-c4ccc(F)c5sc(N)nc45)c(Cl)cc23)C1 [Compound 23, 1-(3-((7-(2-amino-7-fluorobenzo[d]thiazol-4-yl)-6-chloro-8-fluoro-2-(((S)-1-methylpyrrolidin-2-yl)methoxy)quinazolin-4-yl)amino)azetidin-1-yl)prop-2-en-1-one] | – | > 1000 |
